Data reported in patent US7033829B2, “Method to inhibit cell growth using oligonucleotides” (Trustees of Boston University, priority 2000, dated 2006).
Oligonucleotides are written 5' to 3', each unit as a sugar letter and its base; * is a phosphorothioate linkage, no mark a phosphodiester; rarer units and linkages stand in square brackets, end groups in braces. Plain capitals give the bases only. d = 2'-deoxy (DNA); {P} = phosphate

Legend:
p53, E2F1 = experiment: Western analysis of p53 and E2F1 in Jurkat cells; assay type: cell-based, human; conditions: by 24 hours
Description: Oligonucleotides homologous to the telomere overhang repeat sequence (TTAGGG; SEQ ID NO:11), sequence (11mer-1: pGTTAGGGTTAG; SEQ ID NO: 5), complementary to this sequence (11mer-2: pCTAACCCTAAC; SEQ ID NO: 9) and unrelated to the telomere sequence (11mer-3: pGATCGATCGAT; SEQ ID NO: 10) were added to cultures of Jurkat cells, a line of human T cells, one of the cell types reported to undergo apoptosis in response to telomere disruption. Within 48 hours, 50% of the cells treated with 40 μM of SEQ ID NO: 5 had accumulated in the S phase, compared to 25–30% for control cells (p<0.0003, non-paired t-test; see FIGS. 19A–19D), and by 72 hours, 13% of these cells were apoptotic as determined by a sub-G0/G1 DNA content, compared to 2–3% of controls (p<0.007, non-paired t-test; see FIGS. 19E–19H). At 96 hours, 20±3% of the 11mer-1 treated cells were apoptotic compared with 3–5% of controls (p<0.0001, non-paired t-test). […] The fluorescence intensity of the cells was the same after all treatments at 4 hours and 24 hours.
Cells were plated at a density of 180,000 cells/ml in RPMI 1640 medium supplemented with 3% FBS. […] TUNEL-positive cells were detected by FACS analysis and confocal microscopy. […] Uptake of the oligonucleotides was assessed in 5–10 μm sections with a Carl Zeiss LSM 510 confocal laser microscope. […] Fluorescence was measured on the FL-1 channel. […]

[1] = system: Primary newborn fibroblasts; experiment: Protection of fibroblasts against H2O2; assay type: cell-based; conditions: for cell yields higher compared to diluent pre-treated control: 10 μM 3 days, within 72 hours
Description: Primary newborn fibroblasts were treated for 3 days with 10 μM pTpT or diluent as control and then treated with 5×10^−5 or 5×10^−4 M H2O2. Within 72 hours of H2O2 exposure, cell yields of pTpT pre-treated cultures were 45±1% and 139±5% higher, respectively, compared to diluent pre-treated control samples. 72 hours after exposure of the […] H2O2 dose, only 9.6±2.4% of the diluent pre-treated cells survived.

Substance	E2F1 level (p53, E2F1)	p53 level (p53, E2F1)	cell yields higher compared to diluent pre-treated control ([1]; 5×10^−4 M H2O2) [%]	cell yields higher compared to diluent pre-treated control ([1]; 5×10^−5 M H2O2) [%]	increase of cell survival ([1]; 5×10^−4 M H2O2)	protection of cell survival ([1]; low H2O2 dose)
pGTTAGGGTTAG (DNA {P}-dGdTdTdAdGdGdGdTdTdAdG) [SEQ ID NO: 5]	concomitant increase in the level of the E2F1 transcription factor	an increase in p53				
thymidine dinucleotide [pTpT]			139±5	45±1	2–9 fold	complete protection
